Source: publication PMC3372086 (Journal of Medicinal Chemistry, 2012)
Where a name gives a salt, the structure may show the parent alone.

Legend:
[1] = test system: several laboratory strains and primary isolates; settings: cited from earlier work
TZM-bl cells = experiment: Cytotoxicity in TZM-bl cells; format: cell-based; settings: at the dose given as CC50 bound
MT-2 cells = experiment: Cytotoxicity in MT-2 cells; format: cell-based, Human; settings: for % toxicity at that dose (number in parenthesis), MT-2 cells: at the dose given as CC50 bound

CC1(C)CC(NC(=O)C(=O)Nc2ccc(Cl)cc2)CC(C)(C)N1 [compound 1]
potency against several laboratory strains and primary isolates [1]: low micromolar potency

Cc1nc(C(NC(=O)C(=O)Nc2ccc(F)cc2)C2CCCCN2)sc1CO (stereo not drawn) [compound 25, N^1-(4-fluorophenyl)-N^2-((5-(hydroxymethyl)-4-methylthiazol-2-yl)(piperidin-2-yl)methyl)oxalamide.HCl]
% toxicity at that dose (number in parenthesis), TZM-bl cells (TZM-bl cells): 0%

Cc1nc(C(NC(=O)C(=O)Nc2ccc(Cl)cc2)C2CCCCN2)sc1CCO (stereo not drawn) [compound 9, N^1-(4-chlorophenyl)-N^2-((5-(2-hydroxyethyl)-4-methylthiazol-2-yl)(piperidin-2-yl)methyl)oxalamide.HCOOH]
% toxicity at that dose (number in parenthesis), MT-2 cells (MT-2 cells): 0%

Cc1nc(C(NC(=O)C(=O)Nc2ccc(F)c(Cl)c2)C2CCCCN2)sc1CO (stereo not drawn) [compound 24, N^1-(3-chloro-4-fluorophenyl)-N^2-((5-(hydroxymethyl)-4-methylthiazol-2-yl)(piperidin-2-yl)methyl)oxalamide.2HCl]
% toxicity at that dose (number in parenthesis), TZM-bl cells (TZM-bl cells): 0%

CC1(C)CC(NC(=O)C(=O)Nc2ccc(Br)cc2)CC(C)(C)N1 [compound 2]
potency against several laboratory strains and primary isolates [1]: low micromolar potency

Cc1nc(C(NC(=O)C(=O)Nc2ccc(Cl)cc2)C2CCCCN2)sc1CCO.O=CO (stereo not drawn) [compound 30, N^1-(4-chlorophenyl)-N^2-((5-(2-hydroxyethyl)-4-methylthiazol-2-yl)(piperidin-2-yl)methyl)oxalamide.HCOOH]
% toxicity at that dose (number in parenthesis), MT-2 cells (MT-2 cells): 0% | CC50 (MT-2 cells; read-out: MT-2 Cells CC50 (μM ± SD), MT-2 cells, XTT, 4 days): > 62 µM

Cc1ccc(NC(=O)C(=O)NC(c2nc(C)c(CO)s2)C2CCCCN2)cc1F (stereo not drawn) [compound 28, N^1-(3-fluoro-4-methylphenyl)-N^2-((5-(hydroxymethyl)-4-methylthiazol-2-yl)(piperidin-2-yl)methyl)oxalamide.HCl]
% toxicity at that dose (number in parenthesis), TZM-bl cells (TZM-bl cells): 0%

Cc1nc(C(NC(=O)C(=O)Nc2ccc(F)c(F)c2)C2CCCCN2)sc1CO (stereo not drawn) [compound 22, N^1-(3,4-difluorophenyl)-N^2-((5-(hydroxymethyl)-4-methylthiazol-2-yl)(piperidin-2-yl)methyl)oxalamide.HCl]
% toxicity at that dose (number in parenthesis), TZM-bl cells (TZM-bl cells): 0%
